Read-outs that look alike come from different tables or passages of the source.
Key:
[1] = system: T. b. brucei; test: In vitro antitrypanosomal activity against T. brucei (growth inhibition); assay type: cell-based, Trypanosoma brucei; conditions: Trypanosoma brucei; for EC90: read-out: T. brucei EC90
Summary of the method: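 Dose-response EC50 against T. brucei parasites with 0.4% DMSO final, 48 h at 37 °C; parasite density quantified by ATP luminescence (CellTiter-Glo).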

[2] = system: Trypanosoma cruzi; test: Efficacy against T. cruzi in vitro; assay type: cell-based; conditions: Trypanosoma cruzi, Table 10; for EC50: read-out: T.cruzi EC50; for EC90: read-out: T.cruzi EC90
[3] = Metabolic stability in human liver microsomes; assay type: in vitro ADME; conditions: for Human microsomes, percentage of compound remaining / half-life at 1.5 μM / Human microsomes t1/2: Table 12; for Human microsomes, percentage of compound remaining: after 60 min (where t1/2 > 60 min); for half-life at 1.5 μM / Human microsomes t1/2: 37° C., NADPH (1 mM), microsomes 0.5 mg/mL, test compounds 1.5 μM; for half-life at 1.5 μM: read-out: Human microsomes t1/2
Experimental: (§1) Metabolic stability was evaluated using liver microsomes derived from mouse and human sources. Microsomal incubations were carried out according to a protocol described previously (Wang et al., Antimicrob. Agents Chemother. 54:2507 (2010)) with modifications. Briefly, substrate stock solutions were prepared in DMSO and DMSO content was kept at 0.5% (v/v) in final incubations. Incubation mixtures ([…]), liver microsomes (0.5 mg/mL) from mouse (pool of 1000, CD-1 male mouse) or human (pool of 50, mixed gender) (XenoTech LLC, Lenexa, Kans.) in a phosphate buffer (100 mM, pH 7.4) containing 3.3 mM MgCl2. After a 5-minute pre-equilibration period at 37° C., reactions (in triplicate) were initiated by adding the NADPH cofactor (1 mM). For NADPH-independent reactions, the cofactor was replaced with water. Aliquots (10 μl) of the reaction mixtures were removed at 0, 15, 30, and 60 minutes and individually mixed with 200 μL of ice-cold acetonitrile containing internal standard. The mixtures were vortex-mixed, and precipitated protein was removed by centrifugation at 2,250×g for 15 min. The supernatant fractions were dried using a 96-well microplate evaporator (Apricot Designs Inc., Covina, Calif.) under N2 at 50° C. and reconstituted with 100 μL 50% methanol containing 0.1% trifluoroacetic acid before UPLC-MS/MS analysis. In vitro half-life (t1/2) was obtained by analyzing the substrate concentration vs. incubation time curve using the one-phase exponential decay model (GraphPad Prism® 5.0, San Diego, Calif.).

[4] = Metabolic stability in mouse liver microsomes; assay type: in vitro ADME; conditions: for Mouse microsomes t1/2: Table 12, 37° C., NADPH (1 mM), microsomes 0.5 mg/mL, test compounds 1.5 μM
Experimental: as §1

[5] = Distribution between mouse plasma and brain (brain penetration, ip); assay type: in vivo; conditions: for Brain/plasma ratio / [compound]Brain / [compound]Plasma: Table 14, mice, single ip dose 5 mg/kg, one hour post-dose; for Kp at 1 h / concentration at 1 h: mouse; for Kp at 1 h: brain and plasma, read-out: Average brain/plasma ratio; for [compound]Brain / [compound]Plasma: ± SEM of 3 mice (compound 3: 6 mice)
Summary of the method: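 Mice (n=3) received a single 5 mg/kg ip dose in 7% Tween 80, 3% ethanol, 5% DMSO, 0.9% saline and were sacrificed 1 h post-dose. Plasma and acetonitrile brain homogenates analysed by LC/MS/MS; brain concentration corrected for 2.5% vasculature volume, assuming 1 g = 1 mL.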

[6] = Mouse oral pharmacokinetics; assay type: in vivo
Experimental: […] Experiments were performed with groups of three mice per compound. Plasma was separated and extracted with acetonitrile for measurements of compound concentrations by liquid chromatography/tandem mass spectrometry.

[7] = system: human hepatocytes HepG2; test: Cytotoxicity against HepG2 cells; conditions: for EC50: Homo sapiens, HepG2, read-out: HepG2 EC50; for EC90: read-out: HepG2 EC90, concentration required to inhibit growth by 90%, human hepatocytes
[8] = system: human lymphocytes CRL-8155; test: Cytotoxicity against CRL-8155 cells; conditions: human lymphoblasts; for EC50: read-out: CRL-8155 EC50, concentration required to inhibit growth by 50%; for EC90: read-out: CRL-8155 EC90, concentration required to inhibit growth by 90%
Experimental: The selectivity of each compound for the parasite over each of the two cell lines was calculated.

[9] = Table 7, read-out: T. brucei EC50
[10] = Table 11, read-out: T. b. brucei EC50
[11] = Table 12, read-out: T. b. brucei EC50
[12] = Table 9, read-out: T. brucei EC50
[13] = both sexes, human, liver microsomes, pH 7.4
[14] = Table 8, groups of 3 mice (compound 3: ± SEM of 6 mice)
[15] = intraperitoneal, 5 mg/kg, Table 7, groups of 3 mice
[16] = brain, intraperitoneal, 5 mg/kg, Table 7, groups of 3 mice, read-out: Average [compound] brain
[17] = plasma, intraperitoneal, 5 mg/kg, Table 7, groups of 3 mice, read-out: Average [compound] plasma

Row | SMILES | EC50 [1, 9] [nM] | EC50 [1, 10] [nM] | EC50 [1, 11] [nM] | EC50 [1, 12] [nM] | EC90 ([1]; Table 9) [nM] | EC50 [2] [nM] | EC90 [2] [nM] | Human microsomes, percentage of compound remaining [3] [%] | half-life at 1.5 μM [3, 13] [min] | Mouse microsomes t1/2 [4] [min] | Brain/plasma ratio [5] | Kp at 1 h [5, 15] | concentration at 1 h [5, 16] [nM] | concentration at 1 h [5, 17] [nM] | EC50 [7] [nM] | EC90 [7] [nM] | melting point [°C] | EC50 [8] [nM] | EC90 [8] [nM] | Human microsomes t1/2 [3] [min] | other results
1 | O=C(Nc1ccc2sc(-c3ccc(F)c(F)c3)nc2c1)N1CCCC1 [Compound 2, 2-(3,4-Difluorophenyl)-5-(N-pyrrolidylamido)benzothiazole] | 91.8 | 91.8 | 91.8 | 91.8 | 181 | 339 | 483 | 66 | > 60 | 14 | 1.81 ± 0.458 | 1.81 ± 0.793 | 4250 ± 1200 | 2610 ± 1260 | > 50000 | > 50000 | 221 to 223 | 33900 | > 50000 |  | EC50 ([1]; Table 8, read-out: T. brucei EC50): 91.8 nM; half-life at 3 μM ([3]; both sexes, human, liver microsomes, pH 7.4, Table 5, read-out: Microsome t1/2 (min) Human): > 60 min; Microsome t1/2 (min) Mouse ([4]; Table 5): 13.8 min; Average [compound] brain [5, 14]: 4.25 ± 1.20 µM; Average [compound] plasma [5, 14]: 2.61 ± 1.26 µM; Kp at 1 h ([5]; intraperitoneal, 5 mg/kg, Table 5, mouse brain penetration (60 min), n = 3): 1.81 ± 0.793; Kp at 1 h ([5]; intraperitoneal, 5 mg/kg, Table 8, groups of 3 mice): 1.81 ± 0.793; concentration at 60 min ([5]; plasma, intraperitoneal, 5 mg/kg, Table 5 r15, mouse brain penetration (60 min), n = 3): 2610 ± 1260 nM; Mouse oral PK Tlast ([6]; Table 5): 480 min; Mouse oral PK Average AUC ([6]; Table 5, n = 3): 408 ± 95 (n = 3) min * μmol/L; AUC0 min-∞ ([6]; Table 13, mice, single 50 mg/kg oral gavage, vehicle Tween 80 (7%), EtOH (3%), DMSO (5%) in 0.9% NaCl, ± SEM of 3 mice): 443.3 ± 43.07 µM·min; Cmax ([6]; Table 13, mice, single 50 mg/kg oral gavage, vehicle Tween 80 (7%), EtOH (3%), DMSO (5%) in 0.9% NaCl, ± SEM of 3 mice, read-out: Cmax): 2010 ± 460 nM; Cmax ([6]; mouse, plasma, po, 50 mg/kg, Table 5, n = 3, read-out: Mouse oral PK Average Cmax): 2000 ± 820 nM; Tmax ([6]; mouse, plasma, po, 50 mg/kg, Table 5, read-out: Mouse oral PK Tmax (converted)): 60 min
2 | O=C(Nc1ccc2sc(-c3cccc(F)c3)nc2c1)N1CCCC1 [Compound 6, 2-(3-Fluorophenyl)-5-(N-pyrrolidylamido)benzothiazole] | 158 | 158 | 158 | 158 | 391 | 631 | 697 |  |  | 12 | 1.01 ± 0.037 | 1.01 ± 0.064 | 2280 ± 920 | 2220 ± 798 | > 50000 | > 50000 | 232 to 233 | > 50000 | > 50000 | 37 | [compound]Brain [5]: 2.28 ± 0.532 µM; [compound]Plasma [5]: 2.22 ± 0.461 µM
3 | O=C(Nc1ccc2sc(-c3ccccc3)nc2c1)N1CCCC1 [Compound 7, 2-Phenyl-5-(N-pyrrolidylamido)benzothiazole] | 325 | 325 | 325 | 325 | 817 | 564 | 861 |  |  | 18 | 1.24 ± 0.157 | 1.24 ± 0.272 | 4240 ± 1210 | 3400 ± 569 | > 50000 | > 50000 | 210 to 211 | > 50000 | > 50000 | 30 | [compound]Brain [5]: 4.24 ± 0.698 µM; [compound]Plasma [5]: 3.403 ± 0.328 µM
4 | O=C(Nc1ccc2oc(-c3ccccc3)nc2c1)c1ccccc1 [Compound 15, 5-Benzamido-2-phenylbenzoxazole] |  |  |  |  |  |  |  |  |  | 17 |  |  |  |  |  |  |  |  |  | 60 | EC50 ([1]; read-out: T. b. brucei EC50): > 10000 nM; EC50 ([1]; read-out: T. brucei EC50): > 10000 nM; EC90 [1]: > 10000 nM
5 | O=C(Nc1ccc2oc(-c3ccccc3)nc2c1)N1CCCCC1 [Compound 16, 2-Phenyl-5-N-piperidylamidobenzoxazole] |  |  | 2800 | 2800 | 9300 |  |  | 77 | > 60 | 11 |  |  |  |  |  |  | 207 to 209 |  |  |  | 
6 | O=C(Nc1ccc2sc(-c3ccccc3)nc2c1)c1ccccc1 [Compound 17, 5-Benzamido-2-phenylbenzothiazole] |  |  | 2380 | 2380 | 7740 |  |  | 53 | > 60 | 50 |  |  |  |  |  |  |  |  |  |  | 
7 | O=C(Nc1ccc2sc(-c3ccccc3)nc2c1)N1CCCCC1 [Compound 23, 2-Phenyl-5-(N-piperidylamido)benzothiazole] |  | 366 | 366 | 366 | 809 | 826 | 1070 | 62 | > 60 | 17 |  |  |  |  | > 50000 | > 50000 | 230 to 232 | > 50000 | > 50000 |  | 
8 | O=C(Nc1ccc2sc(-c3cccc(F)c3)nc2c1)N1CCCCC1 [Compound 29, 2-(3-Fluorophenyl)-5-(N-piperidylamido)benzothiazole] |  | 174 | 174 | 174 | 602 | 320 | 503 |  |  | 11 |  |  |  |  | > 50000 | > 50000 | 216 to 217 | > 50000 | > 50000 | 8.9 | 
